# Source: patent publication US10076508B2, “Pharmaceutical compositions for inhibiting antibiotic-resistant microorganisms and uses thereof” (Peptide Cham Biotech Co., Ltd., priority 2015, dated 2018)
# Key:
# [1] = tested on: Mammalian cell line L292 and MEF cell lines; assay: MTT assay cytotoxicity (survival analysis); type: cell-based, human; details: 100 μg/mL, 24 hours, 570 nm absorbance
# Description: Mammalian cell line L292 and MEF cell lines were cultured in Dulbecco's modified Eagle culture medium, wherein the culture medium was added with 100 μg/mL streptomycin, 100 U/mL penicillin and 10% (v/v) fetal bovine serum, and then the cell lines were cultured the in 5% CO2 containing humidified incubator under 37° C.
# MTT assay was used for investigating the cytotoxicity of compound on mammalian cells. The cells were cultured at 96-well tray with 100 μL culture medium for 24 hours after sterilization, then the cells were cultured in the diluted culture medium for 24 hours. 3-(4,5-dimethylthiazol-2yl)-2,5-diphenyltetrazolium bromide (MTT) was added into each well of 96-well tray and incubated for 4 hours. The cell suspension was removed and 100 μL dimethyl sulfoxide was added for dissolving all the precipitate. Enzyme immunoassay instrument was used for measure the 570 nm absorbance.
# [2] = tested on: human red blood cells; assay: Hemolytic test; type: cell-based; details: at 100 μg/ml; human red blood cells 2% (V/V), 37° C., 1 hour, O.D. 490 nm
# Description: Fresh human red blood cells were washed by 0.9% physiological saline for three times, then were dissolved into 2% (V/V) physiological saline, and 50 μL red blood cells suspension and 50 μL of the compound (10, 50 and 100 μg/ml of antibiotic Fmoc-Ala-OPfp) and Triton X-100 was added into the 96-well tray, wherein the final concentration of red blood cells was 2% (V/V). The sample was slightly shaking in the incubator under 37° C. for 1 hour and centrifuged with 2000 g for 30 minutes. 50 μL sample suspension was dropped into a new 96-well tray and the O.D. 490 nm absorbance was measured. The physiological saline and Triton X-100 was negative control group and positive control group, respectively.
# [3] = tested on: Staphylococcus aureus; assay: Antibiotics activity test (bacteria concentration OD630 over time); type: cell-based; details: 1 μg/ml Fmoc-Ala-OPfp in culture medium, 8 hours after bacterial inoculation, 37° C.; compared with ampicillin and vancomycin
# Description: The bacteria were cultured for antibiotics activity test. (FIG. 3) The cultured cells were added with specific concentration of Fmoc-Ala-OPfp, Ampicillin and Vancomycin as experimental group, and the cultured cells were not added with any drugs as control group, and the same amount of Staphylococcus aureus colonies were added then cultured in an incubator under 37° C. The different time of bacteria concentrations (OD630) were tested to investigate the antibiotic inhibitory effect of Fmoc-Ala-OPfp, Ampicillin and Vancomycin.
# Only a small amount (1 μg/ml) of Fmoc-Ala-OPfp was added in the culture medium.
structure (smiles),measurement,setting,value
"C[C@H](NC(=O)OCC1c2ccccc2-c2ccccc21)C(=O)Oc1c(F)c(F)c(F)c(F)c1F [Fmoc-Ala-OPfp, N-(9-fluorenylmethoxycarbonyl)-L-alanine pentafluorophenyl]",cell toxicity on MTT assay,[1],10-20%
same,hemolytic activity,[2],low hemolytic activity
same,"antibiotic effect (inhibition of bacteria growth, OD630)",[3],equivalent to 5.3 μg/ml of ampicillin and 5.3 μg/ml vancomycin
